Two compounds from patent US20240197728A1, “METHODS AND PHARMACEUTICAL COMPOSITIONS FOR TREATING REFRACTORY EPILEPSY” (INSERM (INSTITUT NATIONAL DE LA SANTÉ ET DE LA RECHERCHE …, priority 2021, published 2024) can be followed below.

One assay deals with KCC2. Briefly: Surface biotinylation and immunoblot of KCC2 in hippocampal cultures. The class given is cell-based, rat. Particulars: for effect on total KCC2 expression: hippocampal cultures. The method, then: Primary cultures of hippocampal neurons were prepared as previously described. Briefly, hippocampi were dissected from embryonic day 18-19 Sprague-Dawley rats of either sex. Tissue was then trypsinized (0.25% v/v), and mechanically dissociated in 1×HBSS (Invitrogen) containing 10 mM HEPES. Neurons were plated at a density of 120×10^3 cells/ml onto 18-mm diameter glass coverslips (Assistent) pre-coated with 50 μg/ml poly-D,L-ornithine (Sigma-Aldrich) in plating medium composed of Minimum Essential Medium (MEM, Sigma-Aldrich) supplemented with horse serum (10% v/v, Invitrogen), L-glutamine (2 mM) and Na+ pyruvate (1 mM) (Invitrogen). After attachment for 3-4 h, cells were incubated in culture medium composed of Neurobasal medium supplemented with B27 (1×), L-glutamine (2 mM), and antibiotics (penicillin 200 units/ml, streptomycin, 200 μg/ml; Invitrogen) for up to 4 weeks at 37° C. in a 5% CO2 humidified incubator. Each week, one fifth of the culture medium volume was renewed.
(§1) For all experiments on hippocampal cultures, neurons were pre-incubated for 2 hours with either DMSO, PCPZ or CLP257 in a CO2 incubator set at 37° C. Drugs were added directly to the culture medium. For electrophysiology experiments, neurons were also recorded in presence of these drugs in the bath. For biochemistry experiments on rat hippocampo-cortical slices, slices were incubated with either DMSO (vehicle), CLP257, PCPZ, WNK463 or sodium orthovanadate for 2 hours in interface chambers set at 37° C. For human tissue experiments, slices were pre-incubated with either DMSO, CLP257 or PCPZ for 2 hours in interface chambers set at 37° C. and then also recorded in presence of these compounds.
Neurons were washed with ice-cold PBS three times, and then incubated with PBS supplemented with 0.5-1 mg/ml EZ-Link Sulfo-NHS-SS-Biotin (Pierce, Rockford, IL, USA) at 4° C. for 30 min under gentle agitation. Biotinylation was stopped by addition of Tris-HCl (50 mM; pH 7.4) and cells lysed in a modified RIPA buffer containing (in mM): Tris-HCl 50 (pH 7.4), NaCl 150, 1% Nonidet P-40, 0.5% DOC, 0.1% SDS, NaF 50, Na3VO4 1 and protease and phosphatase inhibitors (Roche). Lysates were then collected by gently scraping the bottom of each well. After complete homogenization, samples were centrifuged and the supernatant was collected. A small fraction of the lysates was kept for input KCC2 and total protein quantification using BCA kit (Thermo Scientific). Lysates were mixed with a 50% slurry of Neutravidin beads (Thermo Scientific) and rotated overnight at 4° C. […]
Samples were subjected to electrophoresis on polyacrylamide gradient gels (4-12%) and transferred to nitrocellulose membranes. […] Fluorescence was detected using Odyssey infrared imaging system (LI-COR Bioscience). […]

In assay [1] the test system is spontaneous interictal-like discharges (IIDs) in slices from mTLE patients. The assay is described as follows: Multielectrode array recording of postoperative hippocampal-subicular slices from mTLE patients. The class given is cell-based, human. Particulars: for effect on proportion of slices displaying IIDs: p<0.05. The method, then:
as §1
Patients or their legal guardians gave informed consent to participate in the study. Patients ([…], 3 males, 4 female, age range: 16-54 years) diagnosed with mesial temporal lobe epilepsy with hippocampal sclerosis underwent multimodal preoperative neurological, neurophyschological and psychiatric evaluations as well as video-electroencephalographic recording, magnetic resonance imaging and fluorodeooxyglugose positron emission tomography. Cortectomies were performed at Sainte-Anne Hospital by neurosurgeons B. Devaux and B. Turak and at Pitié-Salpêtriére Hospital by neurosurgeons S. Clemenceau and B. Mathon. Cortical specimens collected in the operating room were immediately transported in ice-cold (0-4° C.), oxygenated solution (O2/CO2 95/5%), containing (in mM): N-methyl-d-glucamine 93, KCl 2.5, NaH2PO4 1.2, NaHCO3 30, HEPES 20, D-glucose 20, ascorbic acid 5, sodium pyruvate 3, MgSO4 10 and CaCl2 0.5 (300-310 mOsm, pH7.4) and transported within 15 minutes to the laboratory. Transverse hippocampal-subicular slices (400 m thick) were prepared in the same solution using a vibratome (HM650V, Microm). They were maintained for 20-30 minutes at 37° C. and then at room temperature in an interface chamber containing artificial cerebrospinal fluid (ACSF) composed of (in mM): D-glucose 10, KCl 3.5, NaHOC3 26, NaH2PO4 1.25, NaCl 126, CaCl2 1.6 and MgCl2 1.2 (290 mOsm), equilibrated with 5% CO2 in 95% 02.
Multielectrode array recordings were performed using a MEA2100 station (Multi Channel Systems) equipped with a 120-microelectrode array chamber (custom 12×10 layout, 30 μm TiN electrodes spaced 1 mm vertical and 1.5 mm horizontal). Slices were maintained in the recording chamber using a home-made platinum-nylon harp and superfused with pre-warmed (37° C.) oxygenated ACSF at a rate of 6 ml/min. Slices were imaged using a video-microscope table (MEA-VMT1, Multi Channel Systems) in order to register the location of electrodes with respect to the slice. Extracellular signals were acquired at a sampling rate of 10 kHz using Multi Channel Experimenter (Multi Channel Systems) and analyzed offline using homemade software (Matlab, The Mathworks).

Where [2] appears, read: 100 μM CLP257, 2 h, slices from 5 out of 6 patients.
Setting [3] is: 100 μM CLP257, 2 h, slices from the remaining patient.

In the case of `O=C1N=C(N2CCCCN2)S/C1=C\c1ccc(F)cc1O` [CLP257, (5Z)-5-[(4-Fluoro-2-hydroxyphenyl)methylene]-2-(tetrahydro-1-(2H)-pyridazinyl)-4(5H)-thiazolone], the “effect on total KCC2 expression” value with KCC2 (100 μM CLP257, 2 h, p=0.893) is given as “no effect”. Also, the “effect on ratio of surface to total KCC2 expression” value in the assay on KCC2 (100 μM CLP257, 2 h, p=0.8) is “no effect”. Besides, in assay [1] (100 μM CLP257, 2 h), the “patients whose slices showed reduced IID frequency” value is 5 out of 6. Moreover, in assay [1] (setting [2]), the “change of IID amplitude” value is given as “+134.4%” and the “reduction of IID frequency” value was determined as 96.5±2.31%. In addition, in assay [1] (setting [3]), the “change of IID amplitude” value is −24.5% and the “change of IID frequency” value was “+12.6%”. Also, the “effect on proportion of slices displaying IIDs” value in assay [1] (100 μM CLP257, 2 h incubation vs DMSO) is on record as “significantly reduced”.
`CN1CCN(CCCN2c3ccccc3Sc3ccc(Cl)cc32)CC1` [PCPZ, prochlorperazine]: the “effect on total KCC2 expression” value in the assay on KCC2 (10 μM PCPZ, 2 h, p=0.137) is given as “no effect”. The “effect on ratio of surface to total KCC2 expression” value with KCC2 (10 μM PCPZ, 2 h, p=0.735) is on record as “no effect”. Moreover, the “mTLE patients whose slices showed suppressed IIDs” value in assay [1] (10 μM PCPZ, 2 h) is 5 out of 7. Besides, the “change of IID amplitude” value is listed as “+9.0%” in assay [1] (10 μM PCPZ, 2 h, group I (5 mTLE patients)) and “+18.2±4.8%” in assay [1] (10 μM PCPZ, 2 h, group II (2 patients)). The “reduction of IID frequency” value in assay [1] (10 μM PCPZ, 2 h, group I (5 mTLE patients, responders)) was found to be 97.55±13.8%. Besides, the “change of IID frequency” value in assay [1] (10 μM PCPZ, 2 h, group II (2 patients, non-responders)) is “+25.5±15.9%”. Further, the “effect on proportion of slices displaying IIDs” value in assay [1] (10 μM PCPZ, 2 h incubation vs DMSO) is “significantly reduced”.
